Measurements as given in US20040096941A1, “Receptor for plant cell growth factor” (priority 2002, published 2004).
One block for each molecule: values may come before it. Square brackets hold non-standard residues; d marks the D form. Side chains are listed from the residue outwards. Ends that are not written are not given here. Peptide text beside a SMILES is read from it. sY = N[C@@H](Cc1ccc(OS(=O)(=O)O)cc1)C(=O)O; Ahx = NCCCCCC(=O)O

How the values were obtained:
[1] = biological target: T1, PSK receptor (120-kD receptor kinase) (Daucus carota, UniProt Q8LPB4); assay: inhibition of [3H]PSK binding to the membrane fraction of the sense transformant by unlabelled competitors; parameters: species or system carrot; conditions: 6.3 nM [3H]PSK, 3.2 μM unlabelled competitor
T1 construct: The inserted portion (i.e., full length cDNA) in the positive phage was subcloned to pBS vector; expressed in transfected cells; host or cells: transgenic carrot cells (sense transformant, pBI121, CaMV 35S promoter); membrane fraction
T1 sequence (Q8LPB4 25-1021): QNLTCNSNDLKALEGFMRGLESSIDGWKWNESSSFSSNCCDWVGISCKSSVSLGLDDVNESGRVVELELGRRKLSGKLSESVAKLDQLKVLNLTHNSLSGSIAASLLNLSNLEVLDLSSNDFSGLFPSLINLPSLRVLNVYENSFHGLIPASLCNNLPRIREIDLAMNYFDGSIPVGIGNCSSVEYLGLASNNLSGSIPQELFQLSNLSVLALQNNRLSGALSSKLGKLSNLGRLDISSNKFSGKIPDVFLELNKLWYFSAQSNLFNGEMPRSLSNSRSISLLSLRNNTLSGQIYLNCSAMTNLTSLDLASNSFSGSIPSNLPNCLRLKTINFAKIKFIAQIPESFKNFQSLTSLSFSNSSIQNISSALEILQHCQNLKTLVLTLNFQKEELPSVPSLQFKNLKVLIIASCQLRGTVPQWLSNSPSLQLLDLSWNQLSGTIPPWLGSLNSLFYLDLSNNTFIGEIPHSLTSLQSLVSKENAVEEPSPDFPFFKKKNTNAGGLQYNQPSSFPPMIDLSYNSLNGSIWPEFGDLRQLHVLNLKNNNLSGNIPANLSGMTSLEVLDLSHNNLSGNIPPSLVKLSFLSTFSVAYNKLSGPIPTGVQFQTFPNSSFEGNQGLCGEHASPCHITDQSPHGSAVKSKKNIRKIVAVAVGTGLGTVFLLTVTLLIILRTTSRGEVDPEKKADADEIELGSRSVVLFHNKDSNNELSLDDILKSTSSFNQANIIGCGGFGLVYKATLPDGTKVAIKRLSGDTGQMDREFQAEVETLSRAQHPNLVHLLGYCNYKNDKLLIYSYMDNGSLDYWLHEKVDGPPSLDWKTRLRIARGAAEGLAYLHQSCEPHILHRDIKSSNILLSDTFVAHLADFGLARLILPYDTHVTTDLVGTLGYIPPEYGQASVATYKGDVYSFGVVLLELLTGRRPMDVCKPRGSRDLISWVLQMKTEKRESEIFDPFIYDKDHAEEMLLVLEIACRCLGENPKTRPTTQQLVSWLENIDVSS
Protocol: The specificity of the PSK binding activity was characterized by comparing the relative binding affinity for several PSK analogs. […] The membrane proteins were incubated in binding buffer containing 6.3 nM [^3H]PSK and 3.2 μM of the competitor .

[2] = biological target: T1, PSK receptor (120-kD receptor kinase); assay: specific binding of PSK to membrane fractions, Scatchard plot; parameters: species or system carrot
[3] = tested on: transgenic carrot cells overexpressing the receptor protein (sense transformants); assay: callus growth of transgenic carrot cells in response to PSK; type: cell-based; conditions: 10 nM PSK, 3 weeks on B5 media with NAA 1.0 mg/liter and 6-BA 0.5 mg/liter
Protocol: The chimeric genes were composed of the receptor kinase ORF, in the sense or antisense orientation, under the control of the constitutive cauliflower mosaic virus 35S promoter incorporated within the binary vector pBI 121. Transformation of carrot hypocotyl segments and plant regeneration were performed following a protocol described elsewhere (M. Hardegger, A. Sturm, Mol. Breed. 4, 119 (1998)). Carrot cells transformed with the binary vector alone were used as controls. Analysis of variance of the growth data was carried out using the Student's t-test procedure of the Prism software (GraphPad Software).
The cDNA of the aforementioned protein was overexpressed in transgenic carrot cells, in sense orientation, under the control of the cauliflower mosaic virus 35S promoter. […] These phenotypes are consistent with the hypothesis that overexpression and antisense inhibition of this receptor protein alter the responsive property of carrot cells to PSK. FIGS. 6A to 6C show the callus growth of the sense transformants, the control cells, and antisense transformants exposed to 10 nM PSK, respectively. The transformed carrot cells and the control cells were cultured for 3 weeks on B5 media containing naphthaleneacetic acid (NAA, 1.0 mg/liter), 6-benzylamino purine (6-BA, 0.5 mg/liter), and 10 nM PSK. The scale bar in FIG. 6C represents 1 cm.

[4] = biological target: PSK receptor protein (120-kD receptor kinase of carrot) (carrot) (UniProt Q8LPB4); assay: [3H]PSK saturation binding to membrane fractions of sense transformants, Scatchard plot
[5] = biological target: PSK receptor protein (120-kD receptor kinase of carrot) (carrot) (UniProt Q8LPB4); assay: [3H]PSK saturation binding to membrane fractions of control carrot cells (endogenous receptor), Scatchard plot
[6] = biological target: T2, PSK receptor protein (120-kD receptor kinase of carrot) (carrot, UniProt Q8LPB4 25-1021, N-linked oligosaccharide chains of approximately 10 kD (cleaved by PNGase F)); assay: affinity chromatography on [Lys5]PSK-Sepharose, elution with PSK, SDS-PAGE
T2 construct: Assayed in membrane fractions of carrot cells (sense transformants overexpressing the ORF; control cells with the endogenous protein) or solubilized from carrot NC cell microsomal membranes; also called phytosulfokine receptor; 120-kD protein
T2 sequence: T1 sequence (Q8LPB4 25-1021)
Protocol: Carrot microsomal membranes (1,200 mg protein) were solubilized in 320 ml of buffer containing 20 mM HEPES-KOH (pH 7.5), 50 mM KCl, and 1.0% Triton X-100 (buffer A). Solubilized materials were centrifuged at 100,000 g for 30 min at 4° C., and supernatants were applied to the [Lys⁵]PSK-Sepharose column (5.0 ml) at a flow rate of 0.5 ml/min using the AKTA prime chromatography system (Amersham Pharmacia Biotech). After washing with 50 ml of buffer containing 20 mM HEPES-KOH (pH 7.5), 50 mM KCl, and 0.1% Triton X-100 (buffer B), the column was eluted with 15 ml of 1.0 mg/ml PSK in buffer B. The eluates were added to a 1.0-ml column of Macro-Prep Ceramic Hydroxyapatite Type I (Bio-Rad laboratories) at a flow rate of 0.5 ml/min at 4° C. The column was washed with 20 ml of buffer B and eluted with a 18-ml gradient of KH₂PO₄ (0 to 400 mM) in buffer B. Active fractions (12 ml), as determined by [³H]PSK binding assay, were concentrated by ultrafiltration (Ultrafree-15 with Biomax-10 membranes, Millipore) and analyzed by SDS-PAGE using 7.5% gels (Y. Matsubayashi, Y. Sakagami, Eur. J. Biochem. 262, 666 (1999)).
The PSK-binding proteins were purified with [Lys⁵] PSK-Sepharose column. The purified proteins were further purified by hydroxyapatite column chromatography, concentrated and subjected to SDS-PAGE and Nile red staining.

[7] = membrane fractions of control cells (binary vector alone)
[8] = membrane fractions of sense transformant

Bmax (fmol per mg of membrane protein) [4]: 570
Bmax (fmol per mg of membrane protein) [5]: 34
Molecule: phytosulfokine (PSK) (peptide)

binding result [6]: binds
B1: [Lys5]PSK-Sepharose (peptide)
peptide: [sY]I[sY]TK([Ahx-Ahx-Ahx-Sepharose])
modifications: also: Lys5 side chain coupled via Ahx spacer to Sepharose

The remaining lines, values behind:

Molecule: CC[C@H](C)[C@H](NC(=O)[C@@H](N)Cc1ccc(OS(=O)(=O)O)cc1)C(=O)N[C@@H](Cc1ccc(OS(=O)(=O)O)cc1)C(=O)N[C@H](C(=O)N[C@@H](CCC(N)=O)C(=O)O)[C@@H](C)O [PSK, phytosulfokine] (H-[sY]I[sY]TQ-OH; N-terminus and C-terminus assumed)
inhibition of binding of [3H]PSK to the membrane fraction of the sense transformant [1]: strongly inhibited
Bmax (maximum number of binding sites) [2, 7]: 34±2 fmol per mg of membrane protein
Kd [2, 7]: 4.8 ± 1.1 nM
Bmax (maximum number of binding sites) [2, 8]: 570±18 fmol per mg of membrane protein
Kd [2, 8]: 4.1 ± 0.5 nM
callus growth in response to PSK, compared with control cells [3]: accelerated growth

Molecule: [1-4]PSK: less active analog of PSK (YIYT)
inhibition of binding of [3H]PSK to the membrane fraction of the sense transformant [1]: less strongly inhibited
